Results from article PMC11284788, “NN1213 – A Potent, Long-Acting, and Selective Analog of Human Amylin” (Journal of Medicinal Chemistry, 2024).
Read-outs that look alike come from different tables or passages of the source.

What was measured:
[1] = Solubility versus pH profile
[2] = target: T1, hCTR (Homo sapiens, UniProt P30988); experiment: scintillation proximity binding assay, hCTR membranes; design: expressed in transfected cells; host or cells: BHK tk-ts 13, transient (FuGENE 6); membranes for the SPA, whole cells for the species-specific assays
T1 sequence (P30988 25-474): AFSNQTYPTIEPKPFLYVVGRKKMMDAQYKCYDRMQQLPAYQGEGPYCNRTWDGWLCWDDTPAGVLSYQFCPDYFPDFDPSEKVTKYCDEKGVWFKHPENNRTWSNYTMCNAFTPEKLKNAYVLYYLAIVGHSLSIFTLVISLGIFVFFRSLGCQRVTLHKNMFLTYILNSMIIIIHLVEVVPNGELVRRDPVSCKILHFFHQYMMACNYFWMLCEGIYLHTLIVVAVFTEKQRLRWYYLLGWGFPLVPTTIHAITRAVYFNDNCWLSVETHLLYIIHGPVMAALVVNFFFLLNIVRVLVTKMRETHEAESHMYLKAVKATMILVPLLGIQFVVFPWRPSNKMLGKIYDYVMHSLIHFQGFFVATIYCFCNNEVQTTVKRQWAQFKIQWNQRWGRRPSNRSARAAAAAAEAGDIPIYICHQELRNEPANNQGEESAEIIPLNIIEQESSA
Experimental: (§1) The apparent binding affinities were determined using a scintillation proximity assay with beads from PerkinElmer and cell membranes containing the AMY3R or CTRs. […] Membranes were harvested and membranes were prepared and kept at −80 °C until use. The assay was performed in a 384-well Optiplate (PerkinElmer). Membranes were mixed with scintillation proximity assay beads in a 1:1 ratio. […] Samples were analyzed on a TopCounter (Packard). The IC50 values were calculated using GraphPad Prism. See Supporting Information S7: SAR Screening Assay Methods (Binding Assays (Human and Rat)) for more information.
(§2) Binding Assays (Human and Rat). Brief descriptions of the methods used to determine binding affinities for SAR analysis are described below. Curves and IC50 values were plotted and calculated in GraphPad Prism using nonlinear regression (one site binding competition analysis), with pIC50 values […]
(§3) values were used to calculate the binding affinity ratios in order to express the selectivity of compounds for the AMY3R versus the CTR.
(§4) CTR Binding Assay. The binding assay was performed using scintillation proximity assay (SPA) beads (RPNQ0001) from PerkinElmer and cell membranes containing either the hCTR or rCTR. BHK […]
(§5) Membranes were prepared in the following way: the cells were rinsed with PBS and incubated with Versene for approximately 5 min before harvesting. The cells were flushed with PBS and the cell-suspension was centrifuged for 5 min at 1000 rpm. Cells were homogenized (Ultra Turrax) in a buffer […]
(§6) containing 20 mM Na-HEPES and 0.1 mM EDTA (pH 7.4, buffer 2). The resulting pellet was re-suspended in buffer 2 and protein concentration was measured (BCA protein assay, Pierce). The homogenate was kept cold during the whole procedure. The membranes were stored at –80 °C until […]
(§7) The binding assay was performed in a 384-well Optiplate (PerkinElmer) in a total volume of 40 μL.
(§8) Membranes were mixed with SPA beads in a 1:1 ratio. […]
(§9) mg/well. Test compounds were dissolved in DMSO and further diluted in assay buffer (50 mM HEPES, pH 7.4, 1 mM CaCl2, 5 mM MgCl2, 0.1% ovalbumin, and 0.02% Tween-20).
(§10) Calcitonin (NEX422 PerkinElmer) was dissolved in assay buffer and added to the Optiplate at a final […]
(§11) prior to centrifugation (1500 rpm, 10 min). Samples were analyzed on TopCounter (Packard).

[3] = target: T2, hAMY3R (Homo sapiens, UniProt O60896+P30988); experiment: scintillation proximity binding assay, hAMY3R membranes; design: expressed in transfected cells; host or cells: BHK tk-ts 13, transient co-transfection; membranes for the SPA, whole cells for the species-specific assays; settings: for ratio hCTR/hAMY3R: ratio of binding IC50 values
T2 sequence (P30988 25-474): T1 sequence (P30988 25-474)
T2 sequence (O60896 24-148 partner): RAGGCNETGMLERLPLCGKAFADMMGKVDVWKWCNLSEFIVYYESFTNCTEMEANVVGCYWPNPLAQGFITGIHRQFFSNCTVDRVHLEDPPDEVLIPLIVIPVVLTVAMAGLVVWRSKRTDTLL

[4] = target: T3, rCTR (Rattus norvegicus, UniProt P32214); experiment: scintillation proximity binding assay, rCTR membranes
T3 construct: expressed in transfected cells; host or cells: BHK tk-ts 13, transient (FuGENE 6)
T3 sequence (P32214 25-479 isoform P32214-2 limits assumed): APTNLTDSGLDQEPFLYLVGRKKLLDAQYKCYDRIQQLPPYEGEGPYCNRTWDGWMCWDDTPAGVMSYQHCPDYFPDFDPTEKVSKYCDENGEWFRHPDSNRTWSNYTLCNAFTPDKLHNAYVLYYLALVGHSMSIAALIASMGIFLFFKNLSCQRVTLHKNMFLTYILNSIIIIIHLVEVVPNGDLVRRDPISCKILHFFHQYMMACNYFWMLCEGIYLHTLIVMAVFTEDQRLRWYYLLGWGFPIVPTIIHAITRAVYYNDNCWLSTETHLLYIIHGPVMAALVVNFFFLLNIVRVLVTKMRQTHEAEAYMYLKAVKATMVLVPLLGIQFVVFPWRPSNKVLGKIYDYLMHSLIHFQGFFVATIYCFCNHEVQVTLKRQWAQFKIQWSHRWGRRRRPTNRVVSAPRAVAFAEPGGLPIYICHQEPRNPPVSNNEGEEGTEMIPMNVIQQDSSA
Experimental: as §1, §2, §3, §4, §5, §6, §7, §8, §9, §10, §11

[5] = bis-tris-propane buffer, pH 6, aqueous buffer
[6] = bis-tris-propane buffer, pH 6.5, aqueous buffer
[7] = bis-tris-propane buffer, pH 7, aqueous buffer
[8] = bis-tris-propane buffer, pH 7.5, aqueous buffer
[9] = bis-tris-propane buffer, pH 8, aqueous buffer
[10] = lactate buffer, pH 4, aqueous buffer
[11] = lactate buffer, pH 5, aqueous buffer
[12] = SPA binding assay, Tables S13 and S15
[13] = SPA, BHK cell membranes, 125I-rat amylin, 120 min 25 °C, read-out: hAMY3R IC50

Row | SMILES | solubility kinetic [1, 5] | solubility kinetic [1, 6] | solubility kinetic [1, 7] | solubility kinetic [1, 8] | solubility kinetic [1, 9] | solubility kinetic [1, 10] | solubility kinetic [1, 11] | hCTR pIC50 [2, 12] | hAMY3R pIC50 [3, 12] | ratio hCTR/hAMY3R [3] | rCTR pIC50 [4, 12] | IC50 ([2]; SPA binding assay, Tables S13 and S15, read-out: hCTR pIC50 (converted)) | IC50 ([2]; SPA, BHK cell membranes, 125I-Calcitonin 75 pM, 120 min 25 °C, read-out: hCTR IC50) | IC50 ([3]; SPA binding assay, Tables S13 and S15, read-out: hAMY3R pIC50 (converted)) | IC50 [3, 13] | IC50 ([4]; SPA binding assay, Tables S13 and S15, read-out: rCTR pIC50 (converted)) | IC50 ([4]; SPA, BHK cell membranes, 125I-Calcitonin 75 pM, 120 min 25 °C, read-out: rCTR IC50)
1 | CC[C@H](C)[C@H](NC(=O)[C@H](C)NC(=O)CNC(=O)[C@H](Cc1ccccc1)NC(=O)[C@H](CC(N)=O)NC(=O)[C@@H]1CCCN1C(=O)[C@H](CO)NC(=O)[C@H](CO)NC(=O)[C@H](Cc1c[nH]cn1)NC(=O)[C@H](CCCNC(=N)N)NC(=O)[C@H](CC(C)C)NC(=O)[C@H](Cc1ccccc1)NC(=O)[C@H](CC(N)=O)NC(=O)[C@H](C)NC(=O)[C@H](CC(C)C)NC(=O)[C@H](CCCNC(=N)N)NC(=O)[C@H](CCC(N)=O)NC(=O)[C@@H](NC(=O)[C@H](C)NC(=O)[C@@H]1CSSC[C@H](NC(=O)[C@H](CCCCN)NC(=O)CC[C@H](NC(=O)CCCCCCCCCCCCCCCCCCC(=O)O)C(=O)O)C(=O)N[C@@H](CC(N)=O)C(=O)N[C@@H]([C@@H](C)O)C(=O)N[C@@H](C)C(=O)N[C@@H]([C@@H](C)O)C(=O)N1)[C@@H](C)O)C(=O)N1CCC[C@H]1C(=O)N[C@@H](CO)C(=O)N[C@@H](CO)C(=O)N[C@H](C(=O)N[C@@H](CC(N)=O)C(=O)N[C@H](C(=O)NCC(=O)N[C@@H](CO)C(=O)N[C@@H](CCCCN)C(=O)N[C@H](C(=O)N[C@@H](Cc1ccc(O)cc1)C(N)=O)[C@@H](C)O)C(C)C)[C@@H](C)O [Peptide 13] | ≥ 200 µM | ≥ 200 µM | ≥ 200 µM | ≥ 200 µM | ≥ 200 µM | ≥ 200 µM | ≥ 200 µM | 7.13 | 8.94 | 64 | 7.05 |  |  |  |  |  | 
2 | CC[C@H](C)[C@H](NC(=O)[C@H](C)NC(=O)CNC(=O)[C@H](Cc1ccccc1)NC(=O)[C@H](CC(N)=O)NC(=O)[C@@H]1CCCN1C(=O)[C@H](CO)NC(=O)[C@H](CO)NC(=O)[C@H](Cc1c[nH]cn1)NC(=O)[C@H](CCCNC(=N)N)NC(=O)[C@H](CC(C)C)NC(=O)[C@H](Cc1ccccc1)NC(=O)[C@H](CC(N)=O)NC(=O)[C@H](C)NC(=O)[C@H](CC(C)C)NC(=O)[C@H](CCCNC(=N)N)NC(=O)[C@H](CCC(N)=O)NC(=O)[C@@H](NC(=O)[C@H](C)NC(=O)[C@@H]1CSSC[C@H](NC(=O)[C@@H](N)CCCCNC(=O)CC[C@H](NC(=O)CCCCCCCCCCCCCCCCCCC(=O)O)C(=O)O)C(=O)N[C@@H](CC(N)=O)C(=O)N[C@@H]([C@@H](C)O)C(=O)N[C@@H](C)C(=O)N[C@@H]([C@@H](C)O)C(=O)N1)[C@@H](C)O)C(=O)N1CCC[C@H]1C(=O)N[C@@H](CO)C(=O)N[C@@H](CO)C(=O)N[C@H](C(=O)N[C@@H](CC(N)=O)C(=O)N[C@H](C(=O)NCC(=O)N[C@@H](CO)C(=O)N[C@@H](CCCCN)C(=O)N[C@H](C(=O)N[C@@H](Cc1ccc(O)cc1)C(N)=O)[C@@H](C)O)C(C)C)[C@@H](C)O [Peptide 14] | ≥ 200 µM | ≥ 200 µM | ≥ 200 µM | ≥ 200 µM | ≥ 200 µM | ≥ 200 µM | ≥ 200 µM |  |  | 48 |  | 0.0427 µM | 0.0423 µM | 0.000891 µM | 0.000885 µM | 0.0562 µM | 0.0556 µM
3 | CC[C@H](C)[C@H](NC(=O)[C@H](C)NC(=O)CNC(=O)[C@H](Cc1ccccc1)NC(=O)[C@H](CC(N)=O)NC(=O)[C@@H]1CCCN1C(=O)[C@H](CO)NC(=O)[C@H](CO)NC(=O)[C@H](Cc1c[nH]cn1)NC(=O)[C@H](CCCNC(=N)N)NC(=O)[C@H](CC(C)C)NC(=O)[C@H](Cc1ccccc1)NC(=O)[C@H](CC(N)=O)NC(=O)[C@H](C)NC(=O)[C@H](CC(C)C)NC(=O)[C@H](CCCNC(=N)N)NC(=O)[C@H](CCC(N)=O)NC(=O)[C@@H](NC(=O)[C@H](C)NC(=O)[C@@H]1CSSC[C@H](NC(=O)[C@H](CCCCN)NC(=O)CC[C@H](NC(=O)CCCCCCCCCCCCCCCCCCC(=O)O)C(=O)O)C(=O)N[C@@H](CC(N)=O)C(=O)N[C@@H]([C@@H](C)O)C(=O)N[C@@H](C)C(=O)N[C@@H]([C@@H](C)O)C(=O)N1)[C@@H](C)O)C(=O)N1CCC[C@H]1C(=O)N[C@@H](CO)C(=O)N[C@@H](CO)C(=O)N[C@H](C(=O)N[C@@H](CC(N)=O)C(=O)N[C@H](C(=O)NCC(=O)N[C@@H](CCCNC(=N)N)C(=O)N[C@@H](CC(N)=O)C(=O)N[C@H](C(=O)N[C@@H](Cc1ccc(O)cc1)C(N)=O)[C@@H](C)O)C(C)C)[C@@H](C)O [Peptide 16] | ≥ 200 µM | ≥ 200 µM | ≥ 200 µM | ≥ 200 µM | ≥ 200 µM | ≥ 200 µM | ≥ 200 µM | 7.71 | 9.18 | 29 | 7.02 |  |  |  | 0.000662 µM |  | 
